Measurements reported in the NIST ThermoML archive (doi:10.1016/j.jct.2014.05.020).

Experiment: excess molar enthalpy (molar enthalpy of mixing); xn = mol fraction of the nth substance listed
Conditions: Flow calorimetry

C1CCCCC1 [cyclohexane] + c1ccccc1
Conditions | excess molar enthalpy [kcal/mol]
498.2 K, 15000 kPa, Liquid, x2 = 0.9161 | 0.0262
523.2 K, 5000 kPa, Liquid, x2 = 0.1189 | 0.0458
523.2 K, 5000 kPa, Liquid, x2 = 0.1765 | 0.0644
523.2 K, 5000 kPa, Liquid, x2 = 0.233 | 0.0798
523.2 K, 5000 kPa, Liquid, x2 = 0.3424 | 0.101
523.2 K, 5000 kPa, Liquid, x2 = 0.4475 | 0.112
523.2 K, 5000 kPa, Liquid, x2 = 0.5485 | 0.114
523.2 K, 5000 kPa, Liquid, x2 = 0.6457 | 0.105
523.2 K, 5000 kPa, Liquid, x2 = 0.7392 | 0.0877
523.2 K, 5000 kPa, Liquid, x2 = 0.8293 | 0.0619
523.2 K, 5000 kPa, Liquid, x2 = 0.8732 | 0.0463
523.2 K, 5000 kPa, Liquid, x2 = 0.9162 | 0.0303
523.2 K, 5000 kPa, Liquid, x2 = 0.9585 | 0.0173
523.2 K, 15000 kPa, Liquid, x2 = 0.1188 | 0.0387
523.2 K, 15000 kPa, Liquid, x2 = 0.1763 | 0.0539
523.2 K, 15000 kPa, Liquid, x2 = 0.2327 | 0.0667
523.2 K, 15000 kPa, Liquid, x2 = 0.3421 | 0.0855
523.2 K, 15000 kPa, Liquid, x2 = 0.4471 | 0.0946
523.2 K, 15000 kPa, Liquid, x2 = 0.5482 | 0.0951
523.2 K, 15000 kPa, Liquid, x2 = 0.6454 | 0.088
523.2 K, 15000 kPa, Liquid, x2 = 0.7389 | 0.0732
523.2 K, 15000 kPa, Liquid, x2 = 0.8291 | 0.0516
523.2 K, 15000 kPa, Liquid, x2 = 0.873 | 0.0391
523.2 K, 15000 kPa, Liquid, x2 = 0.9161 | 0.025
523.2 K, 15000 kPa, Liquid, x2 = 0.9584 | 0.0128
523.2 K, 25000 kPa, Liquid, x2 = 0.1187 | 0.0369
523.2 K, 25000 kPa, Liquid, x2 = 0.1762 | 0.0516
523.2 K, 25000 kPa, Liquid, x2 = 0.2325 | 0.0643
523.2 K, 25000 kPa, Liquid, x2 = 0.3418 | 0.0817
523.2 K, 25000 kPa, Liquid, x2 = 0.4469 | 0.0899
523.2 K, 25000 kPa, Liquid, x2 = 0.5479 | 0.0903
523.2 K, 25000 kPa, Liquid, x2 = 0.6451 | 0.0836
523.2 K, 25000 kPa, Liquid, x2 = 0.7388 | 0.0694
523.2 K, 25000 kPa, Liquid, x2 = 0.829 | 0.0483
523.2 K, 25000 kPa, Liquid, x2 = 0.8729 | 0.0367
523.2 K, 25000 kPa, Liquid, x2 = 0.916 | 0.0234
523.2 K, 25000 kPa, Liquid, x2 = 0.9584 | 0.0123
573.2 K, 15000 kPa, Fluid (supercritical or subcritical phases), x2 = 0.1188 | 0.0358
573.2 K, 15000 kPa, Fluid (supercritical or subcritical phases), x2 = 0.1763 | 0.0503
573.2 K, 15000 kPa, Fluid (supercritical or subcritical phases), x2 = 0.2327 | 0.0611
573.2 K, 15000 kPa, Fluid (supercritical or subcritical phases), x2 = 0.3421 | 0.0788
573.2 K, 15000 kPa, Fluid (supercritical or subcritical phases), x2 = 0.4471 | 0.088
573.2 K, 15000 kPa, Fluid (supercritical or subcritical phases), x2 = 0.5482 | 0.0891
573.2 K, 15000 kPa, Fluid (supercritical or subcritical phases), x2 = 0.6454 | 0.0821
573.2 K, 15000 kPa, Fluid (supercritical or subcritical phases), x2 = 0.7389 | 0.0687
573.2 K, 15000 kPa, Fluid (supercritical or subcritical phases), x2 = 0.8291 | 0.0493
573.2 K, 15000 kPa, Fluid (supercritical or subcritical phases), x2 = 0.873 | 0.0361
573.2 K, 15000 kPa, Fluid (supercritical or subcritical phases), x2 = 0.9161 | 0.025
573.2 K, 15000 kPa, Fluid (supercritical or subcritical phases), x2 = 0.9584 | 0.012
573.2 K, 25000 kPa, Fluid (supercritical or subcritical phases), x2 = 0.1187 | 0.0333
573.2 K, 25000 kPa, Fluid (supercritical or subcritical phases), x2 = 0.1762 | 0.0474
573.2 K, 25000 kPa, Fluid (supercritical or subcritical phases), x2 = 0.2325 | 0.0572
573.2 K, 25000 kPa, Fluid (supercritical or subcritical phases), x2 = 0.3418 | 0.0738
573.2 K, 25000 kPa, Fluid (supercritical or subcritical phases), x2 = 0.4469 | 0.0825
573.2 K, 25000 kPa, Fluid (supercritical or subcritical phases), x2 = 0.5479 | 0.0834
573.2 K, 25000 kPa, Fluid (supercritical or subcritical phases), x2 = 0.6451 | 0.0767
573.2 K, 25000 kPa, Fluid (supercritical or subcritical phases), x2 = 0.7388 | 0.0641
573.2 K, 25000 kPa, Fluid (supercritical or subcritical phases), x2 = 0.829 | 0.045
573.2 K, 25000 kPa, Fluid (supercritical or subcritical phases), x2 = 0.8729 | 0.0332
573.2 K, 25000 kPa, Fluid (supercritical or subcritical phases), x2 = 0.916 | 0.02
573.2 K, 25000 kPa, Fluid (supercritical or subcritical phases), x2 = 0.9584 | 0.00954
